These results are taken from PubChem BioAssay (NCI).

What all share (assay): DTP human tumour cell line panel, 48 h
In assay [1] the test system is BT-549 breast.
For assay [2], the system named is NCI/ADR-RES ovarian.
Assay [3] deals with HOP-18 NSCLC.
Assay [4] has as its system XF 498 CNS.
In assay [5] the test system is SNB-78 CNS.
In assay [6] the test system is M19-MEL melanoma.
For assay [7], the system named is DMS 114 small cell lung.
For assay [8], the system named is DLD-1 colon.

SMILES strings stand for the structures.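 Results reflect a 48-hour exposure of cells in 96-well plates to compound at five concentrations. At the GI50, growth is halved. At the TGI there is no net growth.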

Broadly, the TGI is the concentration giving total growth inhibition. Take `Cc1cc2c(C(C)C)c(O)c(O)c(C=Nc3cc(C(F)(F)F)ccc3Cl)c2c(O)c1-c1c(C)cc2c(C(C)C)c(O)c(O)c(C=Nc3cc(C(F)(F)F)ccc3Cl)c2c1O`: the TGI in assay [1] is 77.6 µM; in assay [2], over 100 µM.
In the case of `COc1ccc(C2C(Cl)C(=O)N2n2cnc3ccccc3c2=O)cc1OC` (configuration not stated), the TGI in assay [3], in assay [4], in assay [5], in assay [6] and in assay [7] was over 100 µM each time.
For `C=C(C)C1CC2C(C)=C(OC(C)=O)C1n1c(=O)c3cc4ccccc4cc3c(=O)n12` (configuration not stated), the TGI in assay [3], in assay [5], in assay [6], in assay [7] and in assay [8] was over 100 µM in each case.
For orientation: GI50 means the concentration that inhibits growth by half. For the molecule `Cc1cc(N(CCNc2ccnc3cc(Cl)ccc23)Cc2ccc3c(c2)OCO3)nc(N2CCN(C)CC2)n1`, in assay [1], the GI50 was 2.17 µM and the TGI was 5.54 µM. In assay [2], the GI50 was 3.26 µM and the TGI was 14.7 µM.
Turning to `COc1ccc(C2SC(N)=Nc3c2c(C)nn3C(=O)c2ccc(Cl)cc2)cc1OC` (configuration not stated), the TGI in assay [1] and in assay [2] was over 10 µM throughout.
For `COC(=O)C1=C(OC(=O)c2ccc(Cl)cc2)C(C(=O)OC)[C@@]2(O)[C@@H](C(=O)OC)C(c3ccccc3C(F)(F)F)C[C@@H]1[C@@H]2C(=O)OC` (some centres not stated), in assay [1], the GI50 was 4.16 µM and the TGI was 63.6 µM. In assay [2], the GI50 was 3.11 µM and the TGI is over 100 µM.
On the same counts, the results for `Cc1ccc(C(=O)/C(=C/c2ccc([N+](=O)[O-])cc2)S(=O)Cc2ccccc2)cc1` (configuration not stated) are 1.79 µM, 3.49 µM, 2.46 µM and over 100 µM.
On the same counts, the results for `Fc1cccc(COc2ccc(Nc3ncnc4sc(-c5ccco5)cc34)cc2Cl)c1` are over 25 µM, over 25 µM, over 25 µM and over 25 µM.
Regarding `Nc1c(C(=O)Nc2ccc([As](=O)(O)O)cc2)cnc2nnnn12`, the TGI in assay [1] and in assay [2] was over 100 µM in each case.
Take `Cc1cc2c(cc1C)NC1=C(N2)OC(c2c[nH]c3ccc(COc4ccccc4)cc23)C1=O` (configuration not stated): the TGI in assay [1] and in assay [2] was over 100 µM in each case.
Turning to `COc1ccc(-c2cc(-c3ccc(Cl)cc3)c(C#N)c(=O)n2CCCCC(=O)Nc2ccccc2N)cc1`, in assay [1], the GI50 was 4.71 µM and the TGI came out at 31.9 µM. Besides, in assay [2], the GI50 was 4.09 µM and the concentration for total growth inhibition (TGI) was over 100 µM.
With `COc1cc(-c2oc3ccccc3c(=O)c2O)cc(OC)c1OC`, the TGI in assay [1] and in assay [2] was over 100 µM each time.
On to `CC[O-].CC[O-].O=C1C(=C([O-])c2ccccc2)C(=O)c2ccccc21.O=C1C(=C([O-])c2ccccc2)C(=O)c2ccccc21.[Ti+4]`, for which the GI50 in assay [3] is over 100 µM; in assay [5], over 100 µM; in assay [8], 93.2 µM. Also, the TGI in assay [3], in assay [5] and in assay [8] was over 100 µM throughout.
Molecule `Nc1cc2c3c(cccc3c1)NC2=O` showed a TGI in assay [2] of over 100 µM.
As to `CC(C)c1ccc2nc3ccc(C(=O)NCCN(C)C)cn3c(=O)c2c1`, the TGI in assay [1] was 29.6 µM; in assay [2], 62.9 µM.
On the same counts, the results for `Clc1ccccc1NN(Cc1ccccn1)c1ccccc1Cl` are 56 µM and 47.7 µM.
In the case of `COc1ccc(C(C2=C(C)C(=O)c3ccccc3C2=O)c2ccc(C(C)C)cc(=O)c2O)cc1` (configuration not stated), the TGI is 34.1 µM in assay [4]; 35.1 µM in assay [5]; 4.92 µM in assay [6]; 8.54 µM in assay [7]; 18.4 µM in assay [8].
With `CC(C)N(C(=O)C12C3C4C1C1C2C3C41C(O)C(C)(C)C)C(C)C` (configuration not stated), the total growth inhibition concentration (TGI) in assay [4], in assay [5], in assay [6] and in assay [7] was over 50 µM throughout.
For the molecule `O=c1nc(-c2ccccc2)c2c3c(cccn13)CCC2`, the TGI in assay [4], in assay [5], in assay [6], in assay [7] and in assay [8] was over 100 µM throughout.
With `CCN(c1ccc(CO)c(Cl)c1)C(C)c1ccc(F)cc1` (configuration not stated), the GI50 in assay [1] is 15.5 µM; in assay [2] it was 14.5 µM. Moreover, the values for the TGI in assay [1] and in assay [2] were 29.6 µM and 31.2 µM, respectively.
On the same counts, the results for `C#C[C@]1(O)CC[C@H]2[C@@H]3CC=C4c5nc(Nc6ccccn6)sc5CC[C@]4(C)[C@H]3CC[C@@]21C` are 0.692 µM, 1.72 µM, 2.82 µM and 6.1 µM.
Take `COc1cc(-c2csc(NC(=O)c3cc(C(F)(F)F)cc(C(F)(F)F)c3)n2)cc(OC)c1OC`: in assay [1], the GI50 is 2.16 µM and the TGI worked out at 6.66 µM.
With `COc1ccc2nc(-c3ccccc3)cc(Nc3cccc(/C(C)=N\O)c3)c2c1`, in assay [1], the GI50 was 32.8 µM and the total growth inhibition concentration (TGI) is over 100 µM. For the same molecule, in assay [2], the GI50 is 6.35 µM and the TGI is over 100 µM.
For the molecule `C/C(=N\O)c1ccc(Nc2cc(-n3nnc4ccccc43)nc3ccccc23)cc1`, the GI50 in assay [1] was 3.77 µM; in assay [2], 5.22 µM. The TGI stood at 14.8 µM in assay [1] and 16.2 µM in assay [2].
As to `CC1(C)CCC(C)(C)c2cc(C(=O)Nc3ccc(C(=O)O)cc3)ccc21`, the TGI in assay [1] amounted to 73 µM; in assay [2], 47.3 µM.
Take `CC1(C)O[C@H]2OC3CCC(=O)CC3(O)[C@H]2O1` (some centres not stated): the TGI is over 100 µM in assay [1]; 97.2 µM in assay [4]; over 100 µM in assay [2]; over 100 µM in assay [5]; over 100 µM in assay [6]; over 100 µM in assay [7]. For the same molecule, the concentration for total growth inhibition (TGI) in assay [8] is over 100 µM.
